Measured values reported in patent publication US7777047B2, “Indole compound” (Takeda Pharmaceutical Company Limited, priority 2006, dated 2010).

Legend:
[1] = molecular target: T1, GST-hLGK1 (human liver GK) (Homo sapiens, UniProt P35557); test: Determination of GK activity value (GST-hLGK1, Mant-ATP, capillary electrophoresis); assay type: biochemical; conditions: glucokinase activation; GST-hLGK1, D-glucose, 37° C. for 60 min; concentration at midpoint between maximum activity value and control group activity value
T1 construct: made in house; host or cells: Escherichia coli BL21 (Stratagene), plasmid pGEX6P-2/hLGK1
T1 sequence (P35557 1-464 isoform P35557-3): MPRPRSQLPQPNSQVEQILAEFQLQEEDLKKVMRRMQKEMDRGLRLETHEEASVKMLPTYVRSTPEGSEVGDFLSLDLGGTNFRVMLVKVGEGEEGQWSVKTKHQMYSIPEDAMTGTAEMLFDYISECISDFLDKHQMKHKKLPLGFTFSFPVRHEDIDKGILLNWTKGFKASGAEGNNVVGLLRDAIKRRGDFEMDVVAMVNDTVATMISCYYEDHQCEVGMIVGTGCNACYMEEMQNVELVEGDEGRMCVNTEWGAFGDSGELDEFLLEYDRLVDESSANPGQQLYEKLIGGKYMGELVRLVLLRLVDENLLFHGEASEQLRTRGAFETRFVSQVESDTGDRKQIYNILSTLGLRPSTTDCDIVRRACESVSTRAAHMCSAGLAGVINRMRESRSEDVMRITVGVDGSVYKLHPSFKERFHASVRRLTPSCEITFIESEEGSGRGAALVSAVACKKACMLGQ
Method: Plasmid DNA to be used for the expression of a protein (GST-hLGK1) containing GST (Glutathione S-transferase) added to the amino terminal of human liver GK in Escherichia coli was prepared as follows.
BL21 strain (Stratagene) transformed with pGEX6P-2/hLGK1 obtained in Reference Example 1A was cultured with shaking at 37° C. for 14 hr in a 200 ml Erlenmeyer flask containing 50 ml of 100 μg/ml ampicillin-containing LB medium. The culture medium (25 ml) was diluted with 225 ml of 100 μg/ml ampicillin-containing LB medium, and further cultured with shaking at 37° C. for 1 hr in a 1 L Erlenmeyer flask. After culture, the Erlenmeyer flask was cooled on ice, 125 μL of 100 mM isopropyl-thio-β-D-galactopyranoside (IPTG) was added (final concentration 50 μM), and cultured at 17° C. for 20 hr. The culture medium was centrifuged, and the obtained fungus was disrupted by ultrasonication. The object protein (GST-hLGK1) was purified from the supernatant using Glutathione Sepharose 4B (Amersham Biosciences K.K.).
A solution (5 μL) of test compound in 50% dimethyl sulfoxide was added to each well of 384 well black plate (Nalge Nunc International K.K.). Then, a solution ([…]) obtained by diluting GST-hLGK1 obtained in Reference Example 2A with measurement buffer (containing 50 mM HEPES (pH 7.4), 200 mM KCl, 5 mM MgCl2, 2.5 mM DTT and 50 μM 2′-(or-3′)-O—(N-methylanthraniloyl)adenosine 5′-triphosphate (Mant-ATP) (Jena Bioscience GmbH)) to 6 μg/mL was added to each well.
Each well was stood at 37° C. for 10 min, and 25 mM D-glucose solution (10 μL) was added to start the reaction.
Each well after the reaction was stood at 37° C. for 60 min, and the reaction was quenched by adding 25 μL of a quenching solution (containing 200 mM HEPES (pH 7.4), 20 mM MgCl2, 200 mM EDTA, 0.03% Triton-X 100, 0.3% Coating 3 reagent (Caliper Life Sciences, Inc.)).
2′-(or-3′)-O—(N-methylanthraniloyl)adenosine 5′-triphosphate (Mant-ATP, substrate) and Mant-ADP (reaction resultant product) were separated from each well after the reaction by a microchip type capillary electrophoresis apparatus 250 HTS (Caliper Life Sciences, Inc.). The reaction rate [(reaction resultant product peak height)/(reaction resultant product peak height+substrate peak height)×100(%)] was calculated from the ratio of the substrate peak height and reaction resultant product peak height obtained by fluorescence detection (excitation wavelength 355 nm, measurement wavelength 460 nm) and used as the index of GK activity.
As a control group, the reaction rate was calculated in the same manner as above except that “solution in 50% dimethyl sulfoxide (without test compound)” was used instead of “solution of test compound in 50% dimethyl sulfoxide”.
A concentration dependency curve of the test compound was drawn with the percentage obtained by dividing the reaction rate of the well added with the test compound (test compound addition group) by the reaction rate of the control group was taken as the GK activity value of the test compound, and the concentration of the test compound at the midpoint between the maximum activity value of the test compound addition group and the control group activity value is shown as EC50 value.

| SMILES | EC50 [1] [nM] | melting point [°C] |
| --- | --- | --- |
| CN(c1cccc2cc(C3=NCC4(CCOCC4)S3)[nH]c12)S(=O)(=O)c1cccs1 [Example 243, N-methyl-N-[2-(8-oxa-1-thia-3-azaspiro[4.5]dec-2-en-2-yl)-1H-indol-7-yl]thiophene-2-sulfonamide] | 24 | – |
| COCCOc1cc(N(C)S(=O)(=O)c2ccccn2)c2[nH]c(C3=N[C@@H](CO)CS3)cc2c1 [Example 254, N-[2-[(4S)-4-(hydroxymethyl)-4,5-dihydro-1,3-thiazol-2-yl]-5-(2-methoxyethoxy)-1H-indol-7-yl]-N-methylpyridine-2-sulfonamide] | 200 | – |

Results, then the molecule that gave them:

| EC50 [1] [nM] | melting point [°C] | SMILES |
| --- | --- | --- |
| 82 | 149 to 150 | CN(c1cccc2cc(C3=NCC(CC(N)=O)S3)[nH]c12)S(=O)(=O)c1ccccn1 (single isomer, unassigned) [Example 337, 2-(2-{7-[methyl(pyridin-2-ylsulfonyl)amino]-1H-indol-2-yl}-4,5-dihydro-1,3-thiazol-5-yl)acetamide] |
| 210 | – | COCCOc1cc(N(C)S(=O)(=O)c2ccccn2)c2[nH]c(C3=N[C@H](CO)CS3)cc2c1 [Example 253, N-[2-[(4R)-4-(hydroxymethyl)-4,5-dihydro-1,3-thiazol-2-yl]-5-(2-methoxyethoxy)-1H-indol-7-yl]-N-methylpyridine-2-sulfonamide] |
| 37 | 226 | CN(c1cccc2cc(C3=NCC4(CCN(CC(N)=O)CC4)S3)[nH]c12)S(=O)(=O)c1cccs1 [Example 414, 2-(2-{7-[methyl(2-thienylsulfonyl)amino]-1H-indol-2-yl}-1-thia-3,8-diazaspiro[4.5]dec-2-en-8-yl)acetamide] |
